According to the NIST ThermoML archive (doi:10.1016/j.jct.2010.10.016):

Experiments:
[1] = relative permittivity at various frequencies (dimensionless); xn = mol fraction of the nth substance listed; conditions: 101 kPa, Liquid, Frequency=3 MHz, AC method
[2] = xn = mol fraction of the nth substance listed; conditions: 101 kPa, Liquid; for viscosity: Capillary tube (Ostwald / Ubbelohde) method; for mass density: Pycnometric method; for speed of sound: Resonance method

COCCO [2-methoxyethan-1-ol] + C[N+](=O)[O-]
x2 = 0
Conditions	mass density, [2] [kg/m3]	relative permittivity, [1]	speed of sound, [2] [m/s]	viscosity, [2] [mPa·s]
293.15 K	964.88	17.38	1359.3	1.708
298.15 K	960.29	16.96	1342.1	1.544
303.15 K	955.77	16.56	1325.1	1.404
308.15 K	951.19	16.16	1313.5	1.246
313.15 K	946.21	15.77	1296.8	1.098

C[N+](=O)[O-] [nitromethane] + CCCCOCCO
x1 = 1
Conditions	mass density, [2] [kg/m3]	relative permittivity, [1]	speed of sound, [2] [m/s]	viscosity, [2] [mPa·s]
293.15 K	1137.63	37.31	1340.2	0.648
298.15 K	1130.62	36.52	1320.4	–
298.45 K	–	–	–	0.619
303.15 K	1123.6	35.66	1298.1	0.584
308.15 K	1116.86	34.92	1281.2	0.563
313.15 K	1109.87	34.09	1262.8	0.545
